This passage reports IC50 results from patent publication US20230063457A1, “DNA-PK INHIBITING COMPOUNDS” (Provincial Health Services Authority, priority 2019, published 2023).

Molecules are shown by their SMILES. pIC50: −log10 of the molar value.

Assay [1] has as its target DNA-PK kinase (Homo sapiens, UniProt P78527). In words: Inhibition of DNA-PK kinase activity (ADP-Glo). It counts as biochemical. As to conditions: averaged values over all measurements on all batches; 150 μM ATP, 1 hour at 25° C. The protocol: Inhibition of DNA-PK Kinase Activity Assay buffer was 50 mM Hepes pH 7.5 containing 0.1 mg/ml BSA (albumin from bovine serum), 50 μM DTT (dithiothreitol), 20 mM MgCl2 and 10 μg/ml calf thymus DNA (activation buffer). Kinase reaction was carried out in OptiPlate 384 plates (PerkinElmer 6007299). All compounds tested were dissolved in dimethyl sulfoxide (DMSO) and further dilutions were made in assay buffer. Final DMSO concentration was 1% (v/v). Pre-incubation consisted of compound (1% DMSO in control and blank wells) and 24 ng/well DNA-PK kinase to allow the compounds to bind the enzyme (with buffer in the blank wells) for 15 minutes; after this time 150 μM Adenosine-5′-triphosphate (ATP) and 0.2 μg/μl DNA-PK substrate were added to commence the kinase reaction. Incubations were carried out for 1 hour at 25° C. Kinase activity was determined by using ADP-Glo™ reagent from Promega according to the manufacturer's instructions. The light generated was measured using a luminometer (EnVision, PerkinElmer). Signal obtained in the wells containing blank samples was subtracted from all other wells and IC50 values were determined by fitting a sigmoidal curve to % inhibition of control versus Log10 compound concentration.
In general terms: In ADP-Glo the light output rises with the ADP produced.

In assay [2] the target is T1, Phospho-DNA-PK in FaDu Cells (Homo sapiens, UniProt P78527).
T1 construct: host or cells: FaDu
In words: Effect of compounds on phospho-DNA-PK in FaDu cells (MesoScale sandwich immunoassay). To be noted: 1 hour pre-incubation, 1 μg/ml Neocarzinostatin 2 hours, averaged values, read-out: MSD FaDu IC50. It counts as cell-based. On the procedure: Effect of Compounds on Phospho-DNA-PK in FaDu Cells
All compounds tested were dissolved in DMSO and further dilutions were made in culture medium. Final DMSO concentration was 0.3% (v/v). The human FaDu cells (ATCC) were cultured in MEM medium supplemented with Glutamax and 10% fetal calf serum (PAA). Cells were routinely maintained at densities of 0.2×10^6 cells per ml at 37° C. in a humidified 5% CO2, 95% air atmosphere. Cells were passaged twice a week, splitting back to obtain the low density. Cells were seeded in 96 well plates (Corning 3904) at 1×10^6 cells per ml media in a volume of 50 μl per well. Seeded cells were incubated at 37° C. in a humidified 5% CO2, 95% air atmosphere for 24 hours. Compounds were added (25 μl) to the cells and pre-incubated for 1 hour. 1 μg/ml DNA-damaging agent Neocarzinostatin (NCS) was added (25 μl) to a final volume of 100 μl and incubated for 2 hours at 37° C. in a humidified 5% CO2, 95% air atmosphere. After this period of time plates were removed from the incubator and the 100 μl dilutions were removed from the wells gently, prior to the addition of 75 μl cold RIPA lysis buffer with protease and phosphatase inhibitors to achieve the cells lysis, followed by shaking on a plate shaker at 4° C. for 30 minutes. At the end of this incubation, lysate was assessed for phospho-DNA-PK levels by sandwich immune-assay carried out in anti-mouse antibody coated MesoScale plates. […] Signal obtained in the wells containing blank samples was subtracted from all other wells and IC50 values were determined by fitting a sigmoidal curve to % inhibition of control versus Logo compound concentration.

Broadly, the pIC50 is the IC50 on a negative log10 scale, so that one unit is a factor of ten. As to `Brc1cnc2cc(N3CCOCC3)nc(O[C@H]3CC[C@@H](n4ccnc4)CC3)c2c1` [Example 54], the results for the negative logarithm of the IC50 (pIC50) in assay [1] and in assay [2] were 8.52 and 6.74, respectively.

With `CNc1cnc2cc(N3CCOCC3)nc(O[C@H]3CC[C@@H](n4ccnc4)CC3)c2c1` [Parent compound 171], the values for the negative-log IC50 (pIC50) in assay [1] and in assay [2] were 8.00 and 6.57, respectively.

Consider `c1cnc(N2CCC(COc3nc(N4CCOCC4)cc4ncccc34)CC2)nc1` [Example 129], for which the pIC50 in assay [1] was 7.36; in assay [2], 5.88.

As to `c1cnc2cc(N3CCOCC3)nc(O[C@H]3C[C@@H](c4ncc[nH]4)C3)c2c1` [Example 87], the pIC50 in assay [1] is 7.29; in assay [2] it was 5.94.

Turning to `Fc1cnc(NCC2CCN(c3nc(N4CCOCC4)cc4ncccc34)CC2)nc1` [Example 104], the pIC50 was 7.30 in assay [1] and 5.52 in assay [2].

`Oc1cnc2cc(N3CCOCC3)nc(O[C@H]3CC[C@@H](c4cccs4)CC3)c2c1` [Example 164]: the figures for the negative logarithm of the IC50 (pIC50) in assay [1] and in assay [2] were 7.24 and 5.43, respectively.

In the case of `c1cnc(NCC2CN(c3nc(N4CCOCC4)cc4ncccc34)C2)nc1` [Parent compound 98], the negative-log IC50 (pIC50) in assay [1] is 7.44; in assay [2], 6.15.

As to `Fc1c[nH]c([C@H]2CC[C@@H](Oc3nc(N4CCOCC4)cc4ncccc34)CC2)n1` [Example 76], the negative-log IC50 (pIC50) in assay [1] was 7.96; in assay [2] it was 6.84.

`Oc1cnc2cc(N3CCOCC3)nc(O[C@H]3CC[C@@H](c4cscn4)CC3)c2c1` [Example 167]: the values for the negative-log IC50 (pIC50) in assay [1] and in assay [2] were 8.40 and 6.66, respectively.

Turning to `c1cnc2cc(N3CCOCC3)nc(O[C@H]3CC[C@@H](c4nnn[nH]4)CC3)c2c1` [Example 74], the pIC50 in assay [1] was 8.52; in assay [2], 6.12.

As to `Cn1cc([C@H]2CC[C@@H](Oc3nc(N4CCOCC4)cc4ncc(O)cc34)CC2)cn1` [Example 166], the values for the pIC50 in assay [1] and in assay [2] were 8.40 and 6.72, respectively.

`c1cnc2cc(N3CCOCC3)nc(N3CCC(CNc4ccncn4)CC3)c2c1` [Example 120]: the pIC50 in assay [1] was 6.85; in assay [2], 5.50.

Consider `N#Cc1cccc(-c2ccnc(NCC3CCN(c4nc(N5CCOCC5)cc5ncccc45)CC3)n2)n1` [Example 119], for which the negative logarithm of the IC50 (pIC50) in assay [1] was 6.87; in assay [2] it was 5.62.

For the compound `c1cnc(NC2CCCN(c3nc(N4CCOCC4)cc4ncccc34)CC2)nc1` (stereo not drawn) [Example 18], the negative logarithm of the IC50 (pIC50) in assay [1] was 6.83; in assay [2] it was 5.33.

Take `CS(=O)(=O)N1CCC(Oc2nc(N3CCOCC3)cc3ncccc23)CC1` [Example 143]: the pIC50 in assay [1] was 6.96; in assay [2], 5.74.

For the compound `COc1cnc2cc(N3CCOCC3)nc(O[C@H]3CC[C@@H](n4cc(F)cn4)CC3)c2c1` [Parent compound 170], the pIC50 in assay [1] is 8.10; in assay [2] it was 6.63.

Regarding `c1cnc(NCc2cnn(-c3nc(N4CCOCC4)cc4ncccc34)c2)nc1` [Example 24], the negative-log IC50 (pIC50) in assay [1] was 6.67; in assay [2], 5.03.

With `CNC(=O)c1ccnc(NCC2CCN(c3nc(N4CCOCC4)cc4ncccc34)CC2)n1` [Example 105], the pIC50 in assay [1] is 7.29; in assay [2], 5.94.

With `CN1CC(CNc2nc(N3CCOCC3)cc3ncccc23)COC1=O` (stereo not drawn) [Parent compound 150], the pIC50 in assay [1] is 7.18; in assay [2] it was 5.72.

As for `N#Cc1ccnc(NCC2CCN(c3nc(N4CCOCC4)cc4ncccc34)CC2)n1` [Example 108], the pIC50 in assay [1] was 7.16; in assay [2], 5.47.

Consider `Cc1noc([C@H]2CC[C@@H](Oc3nc(N4CCOCC4)cc4ncccc34)CC2)n1` [Example 5], for which the pIC50 in assay [1] was 7.68; in assay [2], 5.86.

Take `FC(F)(F)c1cnc(NCC2CCN(c3nc(N4CCOCC4)cc4ncccc34)CC2)nc1` [Example 121]: the pIC50 was 6.84 in assay [1] and 5.45 in assay [2].

In the case of `c1cnc2cc(N3CCOCC3)nc(O[C@H]3CC[C@@H](c4ncc[nH]4)CC3)c2c1` [Example 75], the values for the negative-log IC50 (pIC50) in assay [1] and in assay [2] were 8.30 and 7.24, respectively.

`CNC(=O)N1CC(COc2nc(N3CCOCC3)cc3ncccc23)C1` [Example 148]: the figures for the pIC50 in assay [1] and in assay [2] were 6.77 and 5.31, respectively.

With `c1cnc2cc(N3CCOCC3)nc(N3CCC(CNc4nnc[nH]4)CC3)c2c1` [Parent compound 153], the figures for the pIC50 in assay [1] and in assay [2] were 7.52 and 5.60, respectively.

On to `c1cnc(N2CCC(Oc3nc(N4CCOCC4)cc4ncccc34)CC2)nc1` [Example 127], for which the pIC50 in assay [1] was 6.69; in assay [2] it was 4.86.

In the case of `C[C@@H]1CN(c2cc3ncccc3c(O[C@H]3CC[C@@H](c4nc[nH]n4)CC3)n2)CCO1` [Example 66], the negative-log IC50 (pIC50) in assay [1] is 8.52; in assay [2], 6.58.

For `c1cnc(NCCC2CCN(c3nc(N4CCOCC4)cc4ncccc34)CC2)nc1` [Example 130], the pIC50 is 7.32 in assay [1] and 5.60 in assay [2].

With `c1ccc(NCC2CCN(c3nc(N4CCOCC4)cc4ncccc34)CC2)nc1` [Example 122], the negative logarithm of the IC50 (pIC50) in assay [1] was 6.73; in assay [2], 5.36.

With `NC(=O)c1ccnc(NCC2CCN(c3nc(N4CCOCC4)cc4ncccc34)CC2)n1` [Example 99], the pIC50 in assay [1] was 7.82; in assay [2] it was 6.14.

With `c1cnc(NCC2CCN(c3nc(N4CCOCC4)cc4ncccc34)CC2)nc1` [Example 2], the negative-log IC50 (pIC50) in assay [1] was 7.41; in assay [2], 6.13.

Turning to `Oc1cnc2cc(N3CCOCC3)nc(O[C@H]3CC[C@@H](c4nccs4)CC3)c2c1` [Example 168], the values for the negative logarithm of the IC50 (pIC50) in assay [1] and in assay [2] were 8.30 and 6.57, respectively.

`F[C@H]1CN(c2ncn[nH]2)CC[C@@H]1Oc1nc(N2CCOCC2)cc2ncccc12` [Example 156]: the pIC50 in assay [1] is 7.03; in assay [2] it was 6.06.

For `c1cnc(NCC2CCN(c3nc(N4CCOCC4)cc4ncccc34)C2)nc1` (stereo not drawn) [Example 11], the pIC50 was 7.30 in assay [1] and 5.46 in assay [2].

With `Cc1ccnc(NCC2CCN(c3nc(N4CCOCC4)cc4ncccc34)CC2)n1` [Example 109], the pIC50 is 7.12 in assay [1] and 5.32 in assay [2].

On to `c1cnc2cc(N3CCOCC3)nc(O[C@H]3CC[C@@H](n4ccnn4)CC3)c2c1` [Example 79], for which the negative-log IC50 (pIC50) in assay [1] was 8.22; in assay [2] it was 6.43.

`c1cnc2cc(N3CCOCC3)nc(N[C@H]3CC[C@@H](c4nnc[nH]4)CC3)c2c1` [Example 58]: the pIC50 is 7.57 in assay [1] and 5.80 in assay [2].

With `Cc1cnc(NCC2CCN(c3nc(N4CCOCC4)cc4ncccc34)CC2)nc1` [Example 102], the negative logarithm of the IC50 (pIC50) in assay [1] is 7.41; in assay [2], 6.04.

`CN(C)C(=O)c1ccnc(NCC2CCN(c3nc(N4CCOCC4)cc4ncccc34)CC2)n1` [Example 106]: the pIC50 in assay [1] was 7.28; in assay [2], 4.94.

On to `CC(=O)N1CCN(c2nc(N3CCOCC3)cc3ncccc23)CC1` [Example 84], for which the pIC50 is 6.73 in assay [1] and 5.42 in assay [2].

In the case of `Fc1ccnc(NCC2CCN(c3nc(N4CCOCC4)cc4ncccc34)CC2)c1` [Example 132], the pIC50 was 7.09 in assay [1] and 4.98 in assay [2].

As for `c1cnc2cc(N3CCOCC3)nc(OCC3CN(c4ncn[nH]4)C3)c2c1` [Parent compound 151], the values for the pIC50 in assay [1] and in assay [2] were 7.09 and 5.77, respectively.
